Laboratory results from paper PMC8906844 (Organic & biomolecular chemistry, 2021).

Experiments:
pKa measurement = format: physicochemical; settings: weak diprotic acid
LAR = LAR (Homo sapiens, UniProt P10586); settings: 22 °C and pH 6.5; originally obtained; cited from earlier work
LAR, sequence (P10586 30-1907): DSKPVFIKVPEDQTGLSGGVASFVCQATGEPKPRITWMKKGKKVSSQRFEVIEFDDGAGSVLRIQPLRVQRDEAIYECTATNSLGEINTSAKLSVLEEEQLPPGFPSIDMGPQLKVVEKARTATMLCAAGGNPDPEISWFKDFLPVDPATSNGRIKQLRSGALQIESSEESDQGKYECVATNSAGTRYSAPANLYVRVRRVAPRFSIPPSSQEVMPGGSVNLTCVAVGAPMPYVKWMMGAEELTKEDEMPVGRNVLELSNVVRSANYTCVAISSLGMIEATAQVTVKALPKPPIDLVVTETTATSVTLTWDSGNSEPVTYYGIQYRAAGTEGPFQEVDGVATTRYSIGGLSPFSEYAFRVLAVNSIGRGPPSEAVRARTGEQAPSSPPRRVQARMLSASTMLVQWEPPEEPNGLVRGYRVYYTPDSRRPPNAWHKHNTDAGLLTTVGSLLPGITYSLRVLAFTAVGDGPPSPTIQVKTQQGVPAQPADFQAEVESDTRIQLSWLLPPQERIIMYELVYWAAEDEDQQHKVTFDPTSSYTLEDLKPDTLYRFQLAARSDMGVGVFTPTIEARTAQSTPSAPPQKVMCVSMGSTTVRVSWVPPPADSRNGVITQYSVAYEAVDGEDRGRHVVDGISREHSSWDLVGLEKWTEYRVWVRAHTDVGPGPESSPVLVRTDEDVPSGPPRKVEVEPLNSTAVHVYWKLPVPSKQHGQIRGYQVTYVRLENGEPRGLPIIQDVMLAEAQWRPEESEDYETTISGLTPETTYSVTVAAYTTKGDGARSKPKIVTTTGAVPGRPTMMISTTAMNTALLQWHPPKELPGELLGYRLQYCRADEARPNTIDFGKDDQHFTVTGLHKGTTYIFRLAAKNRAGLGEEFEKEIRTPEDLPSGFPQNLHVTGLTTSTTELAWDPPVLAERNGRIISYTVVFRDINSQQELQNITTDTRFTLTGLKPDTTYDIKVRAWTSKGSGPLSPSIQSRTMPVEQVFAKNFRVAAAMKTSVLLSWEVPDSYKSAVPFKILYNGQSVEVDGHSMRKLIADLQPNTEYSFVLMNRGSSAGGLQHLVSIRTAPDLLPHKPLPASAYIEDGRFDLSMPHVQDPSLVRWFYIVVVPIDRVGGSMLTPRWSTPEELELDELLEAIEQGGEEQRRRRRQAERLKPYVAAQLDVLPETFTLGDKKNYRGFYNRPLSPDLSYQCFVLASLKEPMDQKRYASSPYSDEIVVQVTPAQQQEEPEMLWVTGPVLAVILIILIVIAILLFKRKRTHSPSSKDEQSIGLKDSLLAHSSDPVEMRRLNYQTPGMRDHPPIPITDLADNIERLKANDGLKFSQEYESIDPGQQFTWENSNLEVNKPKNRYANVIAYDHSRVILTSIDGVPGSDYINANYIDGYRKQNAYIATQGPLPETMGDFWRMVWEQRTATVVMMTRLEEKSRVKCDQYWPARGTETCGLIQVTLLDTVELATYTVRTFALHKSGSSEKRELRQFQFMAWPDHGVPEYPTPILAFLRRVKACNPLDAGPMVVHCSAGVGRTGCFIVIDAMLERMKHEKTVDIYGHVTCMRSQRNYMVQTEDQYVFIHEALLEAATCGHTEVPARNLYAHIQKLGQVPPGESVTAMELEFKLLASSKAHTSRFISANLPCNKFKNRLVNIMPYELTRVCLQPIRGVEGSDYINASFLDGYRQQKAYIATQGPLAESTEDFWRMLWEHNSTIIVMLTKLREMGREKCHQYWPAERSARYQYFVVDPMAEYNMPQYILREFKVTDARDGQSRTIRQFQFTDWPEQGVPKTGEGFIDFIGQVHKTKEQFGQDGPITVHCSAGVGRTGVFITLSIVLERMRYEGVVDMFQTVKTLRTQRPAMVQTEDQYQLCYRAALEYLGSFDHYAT

CC1(C)Cc2c(O)c(C=O)c3c(c2C1)C(=O)OC(O)C3 (stereo not drawn) [illudalic acid]
pKa (pKa measurement; pKa (first), first value): 5.42 | pKa (pKa measurement; pKa (second), second value): 6.6 | t^∞1/2 (LAR): 0.5 min
